Common to all, as to type: cell-based
The test system of assay [1] is P388 (Lignée lymphoblastoïde murine). In words: MTT test, anti-tumour activity on P388 cell line. Conditions: for IC50: Mus musculus. The procedure: (§1) Différents composés de l'invention ont été testés pour leurs activités anti-tumorales sur différentes lignées tumorales murines ou humaines et comparés à des produits anti-tumoraux connus.
(§2) Les lignées cellulaires testées sont la lignée lymphoblastoïde murine P388, la lignée de mélanome murin B16, la lignée de kératinocytes humains HaCaT, la lignée de mélanome humain HBL.
(§3) L'action anti-tumorale des composés de l'invention a été testée sur ces différentes lignées après différentes durées d'incubation (30 minutes, 2 heures, 3 heures, 48 heures ou 72 heures).
(§4) En outre, différents types d'irradiation, différentes durées d'irradiation (30 minutes ou 60 minutes) ainsi que différentes durées d'incubation ont été testés.
(§5) Les différents résultats sont présentés dans le tableau 1 annexé.

Assay [2] concerns B16 (Lignée de mélanome murin). In words: MTT test, anti-tumour activity on B16 cell line. Conditions: for IC50: Mus musculus, B16, light or radiation study. How it is done: as §1, §2, §3, §4, §5
Background: Tetrazolium assays rely on reduction of a dye to a coloured formazan, in cell work by metabolically active cells.

Assay [3] relates to HaCaT (Lignée de kératinocytes humains). Put plainly: MTT test, anti-tumour activity on HaCaT cell line. Conditions: Homo sapiens, rest 24 h, incubation 3 h, 4°C, incubation before MTT test 45 h, read-out: Dose efficace DL50. How it is done:
as §1, §2, §3, §4, §5

Assay [4] deals with HBL (Lignée de mélanome humain). In words: MTT test, anti-tumour activity on HBL cell line. Conditions: Homo sapiens, rest 24 h, incubation 3 h, 4°C, incubation before MTT test 45 h, read-out: Dose efficace DL50. How it is done:
as §1, §2, §3, §4, §5

The mark [5] stands for this setting: P388, light or radiation study, read-out: Dose efficace DL50, P388, rest after culture 24 h, incubation 2 h, no irradiation, incubation before MTT test 48 h.
Setting [6] is: P388, light or radiation study, read-out: Dose efficace DL50, P388, rest after culture 24 h, incubation 48 h, no irradiation, incubation before MTT test 0 h.
Where [7] appears, read: read-out: Dose efficace DL50, B16, rest after culture 24 h, incubation 2 h, no irradiation, incubation before MTT test 72 h.
[8] abbreviates: read-out: Dose efficace DL50, B16, rest after culture 24 h, incubation 72 h, no irradiation, incubation before MTT test 0 h.
[9] abbreviates: light or radiation study, P388, rest after culture 24 h, incubation 2 h, no irradiation, incubation before MTT test 48 h, read-out: Dose efficace DL50.
Where [10] appears, read: P388, rest after culture 24 h, incubation 48 h, no irradiation, incubation before MTT test 0 h.
Setting [11] is: B16, rest after culture 24 h, incubation 2 h, no irradiation, incubation before MTT test 72 h, read-out: Dose efficace DL50.
The mark [12] stands for this setting: B16, rest after culture 24 h, incubation 72 h, no irradiation, incubation before MTT test 0 h, read-out: Dose efficace DL50.
Where [13] appears, read: light or radiation study, UVA Cléo + filtre UVB + polyéthylène, irradiation 60 min.
Where [14] appears, read: P388, rest after culture 24 h, incubation 2 h, no irradiation, incubation before MTT test 48 h.
The mark [15] stands for this setting: B16, rest after culture 24 h, incubation 2 h, no irradiation, incubation before MTT test 72 h.
Where [16] appears, read: B16, rest after culture 24 h, incubation 72 h, no irradiation, incubation before MTT test 0 h.

We go through 7 compounds from patent EP1369117A1, “Use of derivatives and precursors of oxaziridine in the treatment of cancerous tumours” (priority 2002, dated 2003).

Converted amounts (≈) assume the structure as drawn. Like-named read-outs stand apart in the source and are kept apart here.

In the case of `CNC1=Nc2ccc(Cl)cc2C2(c3ccccc3)ON2C1` (centres unmarked) [oxaziridine du chlordiazépoxide, oxaziridine de chlorodiazépoxide], the IC50 is 41 µg/mL (≈ 137 µM) in assay [1] (setting [5]), 34 µg/mL (≈ 113 µM) in assay [1] (setting [6]), 32 µg/mL (≈ 107 µM) in assay [2] (setting [7]) and 15 µg/mL (≈ 50 µM) in assay [2] (setting [8]).

As for `O=C1C[N+]([O-])=C(c2ccccc2)c2cc(Cl)ccc2N1` [démoxépan, demoxepan], the IC50 in assay [1] (setting [9]), in assay [2] (setting [11]) and in assay [2] (setting [12]) was over 100 µg/mL in each case. Also, the “Dose efficace DL50” value in assay [1] (setting [10]) is over 100 µg/mL.

As for `CNC1=Nc2ccc(Cl)cc2C(c2ccccc2)=[N+]([O-])C1` [chlordiazépoxide, chlorodiazépoxide, reference compound], the IC50 was over 100 µg/mL in assay [1] (setting [9]); 7 µg/mL (≈ 23.4 µM) in assay [2] (B16, rest 24 h, incubation 30 min, lampe de Wood, RT, irradiation 30 min, no time before washing (---), incubation before MTT test 72 h, read-out: Dose efficace DL50); 9 µg/mL (≈ 30 µM) in assay [2] (B16, rest 24 h, incubation 30 min, lampe de Wood, RT, irradiation 30 min, time before washing 1 h, incubation before MTT test 72 h, read-out: Dose efficace DL50); over 100 µg/mL in assay [2] (setting [11]); over 100 µg/mL in assay [2] (setting [12]); 36 µg/mL in assay [3] (light or radiation study, UVA Cléo + filtre UVB + polyéthylène, irradiation 30 min). Also, the IC50 was 24 µg/mL in assay [3] (setting [13]); over 100 µg/mL in assay [3] (no light source (---), 30 min); 12 µg/mL in assay [4] (setting [13]); over 100 µg/mL in assay [4] (no light source (---), 30 min). Further, in assay [1] (setting [10]), the “Dose efficace DL50” value is over 100 µg/mL.

For the compound `O=C1CN2OC2(c2ccccc2)c2cc(Cl)ccc2N1` (centres unmarked) [oxaziridine du démoxépan, oxaziridine de demoxepan], the IC50 in assay [1] (setting [5]) stood at 62 µg/mL (≈ 216 µM); in assay [1] (setting [6]), 22 µg/mL (≈ 76.7 µM); in assay [2] (setting [7]), 22 µg/mL (≈ 76.7 µM); in assay [2] (setting [8]), 11 µg/mL (≈ 38.4 µM).

Consider `N[C@@H](Cc1ccc(N(CCCl)CCCl)cc1)C(=O)O` [Melphalan, reference compound], for which the “Dose efficace DL50” value in assay [1] came to 7 µg/mL; in assay [2], 10 µg/mL. Besides, the IC50 in assay [1] (P388, light or radiation study, read-out: Dose efficace DL50) came to 9 µg/mL (≈ 29.5 µM); in assay [2] (read-out: Dose efficace DL50), 12 µg/mL (≈ 39.3 µM).

For the compound `CNC1=Nc2ccccc2C(c2ccccc2)=[N+]([O-])C1` [deschlordiazépoxide, deschlorodiazépoxide], the “Dose efficace DL50” value in assay [1] (setting [14]), in assay [1] (setting [10]), in assay [2] (setting [15]) and in assay [2] (setting [16]) was over 100 µg/mL in each case.

Turning to “oxaziridine de deschlorodiazépoxide [oxaziridine du deschlordiazépoxide]”, the “Dose efficace DL50” value came to 22 µg/mL in assay [1] (setting [14]), 12 µg/mL in assay [1] (setting [10]), 14 µg/ml μg/ml in assay [2] (setting [15]) and 8 µg/ml μg/ml in assay [2] (setting [16]).
